From patent US12545654B2 (STEMSYNERGY THERAPEUTICS, INC., priority 2020, dated 2026)

These compounds were tested on N-myc protein (assay: In-cell immunostaining assay for decrease of N-myc protein level in neuroblastoma cells). Details: human neuroblastoma cell lines (Kelly, IMR32, SK-N-BE(2)); treated overnight or up to 3 days; N-myc signal normalized over total protein; read-out: Activity (EC50 for decreasing N-myc protein level).
Assay type: cell-based
Method: Human neuroblastoma cell lines were obtained from either Millipore Sigma, St. Louis, MO (Kelly cells) or American Type Culture Collection, Manassas, VA (IMR32 and SK-N-BE(2) cells). Cells were cultured in RPMI1640 medium (Corning, New York, NY), supplemented with 10% fetal bovine serum, 100 unit/mL penicillin and 100 μg/mL streptomycin (Corning, New York, NY) at 37 degree Celsius with 5% CO2 in air atmosphere. Cells cultured in flat clear bottom, black 96-well plates (Corning, New York, NY) were treated with different concentrations of a compound of the invention, which was dissolved in the culture media (200 μL/well), overnight or up to 3 days. Cells were fixed with 4% paraformaldehyde (in Phosphate-Buffered Saline or PBS, 100 μL/well) for 30 minutes at room temperature. Cells were briefly washed three times with PBS afterwards, and then treated with PBS containing 0.1% Triton X-100 (100 μL/well) for 30 minutes at room temperature. For […], cells were further treated with PBS containing 0.01% IRDye 700DX NHS Ester (LI-COR Biosciences, Lincoln, NE. 100 μL/well) for 30 minutes at room temperature. Cells were again washed three times with PBS, and then treated with a Tris-buffered saline solution with 0.1% Tween 20 (TBST) and 5% non-fat milk (50 μL/well) for 1 hour at room temperature. Cells were then treated with TBST with 5% non-fat milk (50 μL/well) containing a mouse anti N-Myc antibody (Clone B8.4.B, 1:500 dilution, Santa Cruz Biotechnology, Santa Cruz, CA), or a combination of a rabbit anti-Histone H3 (phospho S10) antibody (Clone EPR17246, 1:10000 dilution, abcam, Cambridge, MA) and a mouse anti-Histone H3 antibody (Clone 1G1, 1:250 dilution, Santa Cruz Biotechnology, Santa Cruz, CA) overnight at 4 degree Celsius in the dark. Cells were washed three times with TBST, and then treated with TBST with 5% non-fat milk (50 μL/well) containing an IRDye 800CW donkey anti-mouse IgG antibody (1:1000 dilution, LI-COR Biosciences, Lincoln, NE) for N-myc staining, or IRDye® 800CW donkey anti-rabbit IgG and IRDye 680RD donkey anti-mouse IgG antibodies (1:1000 dilution, LI-COR Biosciences, Lincoln, NE) for Histone H3 (phospho S10) and Histone H3 staining, incubated for 1 hour at room temperature in the dark. Cells were then washed four times with TBST and the plate was scanned using an Odyssey 9120 Imaging System (LI-COR Biosciences, Lincoln, NE). Signals for N-myc, total protein, Histone H3 (phospho S10), and Histone H3 were obtained from the images using the ImageStudio software (Version 4.0.21, LI-COR Biosciences, Lincoln, NE). Normalized signals for N-myc (over total protein), and Histone H3 (phospho S10) (over Histone H3) were plotted in Prism 7 software (GraphPad Software, San Diego, CA). A four-parameter dose-response curve was fitted using a variable slope model and the EC50 was calculated in Prism 7 software (GraphPad Software, San Diego, CA).
Work on O=C(Nc1ccc(Cl)c(Cl)c1)c1sc(NC(=O)C2(C(=O)Nc3ccc(F)cc3)CC2)nc1-c1ccccc1 yielded an EC50 greater than 1000 nM.
Cc1nc(NC(=O)C2(C(=O)Nc3cccc(F)c3)CC2)sc1C(=O)Nc1cc(C(F)(F)F)ccc1Cl [SSTA-0171, N-(5-((2-chloro-5-(trifluoromethyl)phenyl)carbamoyl)-4-methylthiazol-2-yl)-N-(3-fluorophenyl)cyclopropane-1,1-dicarboxamide] showed an EC50 greater than 1000 nM.
In the case of Cc1nc(NC(=O)C2(C(=O)Nc3ccc(Cl)cc3)CC2)sc1C(=O)Nc1cc(C(F)(F)F)ccc1Cl [SSTA-0169, N-(5-((2-chloro-5-(trifluoromethyl)phenyl)carbamoyl)-4-methylthiazol-2-yl)-N-(4-chlorophenyl)cyclopropane-1,1-dicarboxamide], the EC50 is reported as greater than 1000 nM.
COc1c(F)cccc1NC(=O)C1(C(=O)Nc2nc(C)c(C(=O)Nc3cc(C(F)(F)F)ccc3Cl)s2)CC1 [SSTA-0240, N-(5-((2-chloro-5-(trifluoromethyl)phenyl)carbamoyl)-4-methylthiazol-2-yl)-N-(3-fluoro-2-methoxyphenyl)cyclopropane-1,1-dicarboxamide] showed an EC50 greater than 1000 nM.
Compound Cc1nc(NC(=O)C2(C(=O)Nc3ccc(F)cc3)CC2)oc1C(=O)Nc1ccc(Cl)c(Cl)c1 [SSTA-0191, N-(5-((3,4-dichlorophenyl)carbamoyl)-4-methyloxazol-2-yl)-N-(4-fluorophenyl)cyclopropane-1,1-dicarboxamide] has an EC50 greater than 1000 nM.
With Cc1nc(NC(=O)C2(C(=O)Nc3cc(F)ccc3F)CC2)sc1C(=O)Nc1cc(C(F)(F)F)ccc1Cl [SSTA-0239, N-(5-((2-chloro-5-(trifluoromethyl)phenyl)carbamoyl)-4-methylthiazol-2-yl)-N-(2,5-difluorophenyl)cyclopropane-1,1-dicarboxamide] the EC50 was greater than 1000 nM.
O=C(Nc1ccc(Cl)c(Cl)c1)c1sc(NC(=O)C2(C(=O)Nc3ccc(F)cc3)CC2)nc1C1CC1 gave an EC50 greater than 1000 nM.
